Measured values reported in US20130244879A1, “USE OF LIPO-CHITOOLIGOSACCHARIDES TO INITIATE EARLY FLOWERING AND FRUIT DEVELOPMENT IN PLANTS AND RELATED METHODS AND COMPOSITIONS” (NOVOZYMES BIOLOGICALS HOLDING A/S, priority 2003, published 2013).

Legend:
Assay type in all cases: in vivo
Marigold = assay: Experiment 5: foliar application of LCO to bedding plants (Marigold)
Description: This is a growth room study. Seeds of garden plant species were selected on the basis of seed-purchase popularity (Norseco, Montreal), grown in trays of Pro-Mix (NB. trademarked name) Seeding Medium, and at some size were transplanted into trays of 36 and 32 wells containing the same medium. Growth proceeded under lights in the growth room. Some 2 weeks before expected flowering, 16 young plants were sprayed with each of various levels of LCO leaving control plants untreated. The results are presented in Table 5A on bud formation and where possible opened flowers.

Ridgetown canning tomato = assay: Experiment 10: effect of LCO on Ridgetown canning tomato; conditions: for Fruit number (on 24 plants) / Fruit number Increase vs. CK (%) / Fruit weight (kg/24 plants) / Fruit weight Increase vs. CK (%): first harvesting
Procedure: The experiment was conducted at Ridgetown College, University of Guelph, Ridgetown, Ontario. Tomatoes were transplanted in single twin rows, 7 m in length spaced 1.65 m apart. Treatments of LCO were applied three times, two weeks before flowering (28 days after transplant), two weeks after flowering (52 days after transplant) and six weeks after flowering (69 days after transplant). Spray applications were applied using a specialized, small plot research CO2 sprayer with a two-nozzled, hand-held boom applying 200 L/ha of spray. Rates were determined based on 38 tomato plants per plot, replicated 4 times, equaling 152 plants per treatment. Early fruit was harvested for yield evaluation on Aug. 20, 2003.

[1] = tested on: Red tomato (cv. Mountain Spring); assay: Experiment 15: LCO application on early fruit number and yield, field tomato
Procedure: Red tomato seedlings (cv. Mountain Spring) were transplanted at their 4-leaf stage. 7 plants in one row were transplanted in each plot of 3.5×2.5M2. The row was covered with 65 cm width black plastic mulch, one week before transplanting. Fertilizer (10-52-10) solution of 250 pprn was applied into the planting hole through the mulch when transplanting (approx. 250 ml/plant). the drip irrigation system was set to twice a week and 4 hours each time, depending on the soil moisture. Plants were sprayed with LCO 15 days after transplant (5 ml/plant) and 29 days after transplant (20 ml/plant). Fruits were first harvested 67 days after transplant.

[2] = 50 ml/16 plants of 3 × 10^−8M LCO
[3] = applied 2 weeks before and after flowering

With Lipo-chitooligosaccharides [LCO] the “plants with 4 flower buds per plant” value (Marigold; 50 ng treatment) was 2, the “Total Number of Marigold buds” value (Marigold; 20 ml/16 plants of 10^−7M LCO) was 26 and the “Total Number of Marigold flower” value (Marigold; 20 ml/16 plants of 10^−7M LCO) was 0. For the same substance, the “Total Number of Marigold buds” value (Marigold; 20 ml/16 plants of 10^−8M LCO) was 25, the “Total Number of Marigold flower” value (Marigold; 20 ml/16 plants of 10^−8M LCO) was 2 and the “Total Number of Marigold buds” value (Marigold; 20 ml/16 plants of 10^−9M LCO) was 24. The “Total Number of Marigold flower” value (Marigold; 20 ml/16 plants of 10^−9M LCO) was 1, the “Total Number of Marigold buds” value (Marigold; [2]) was 34 and the “Total Number of Marigold flower” value (Marigold; [2]) was 3. The increased fruit number (Ridgetown canning tomato; [3]) was “up to 20%”, the increased fruit weight (Ridgetown canning tomato; [3]) was “up to 16%” and the “Fruit number (on 24 plants)” value (Ridgetown canning tomato; treatment 0-50-0) was 209AB. For the same substance, the “Fruit number Increase vs. CK (%)” value (Ridgetown canning tomato; treatment 0-50-0) was 14.2%, the “Fruit weight (kg/24 plants)” value (Ridgetown canning tomato; treatment 0-50-0) was 12.598 kg/24 plants and the “Fruit weight Increase vs. CK (%)” value (Ridgetown canning tomato; treatment 0-50-0) was 16.2%. For the same substance, the “Fruit number (on 24 plants)” value (Ridgetown canning tomato; treatment 0-50-75) was 191AB, the “Fruit number Increase vs. CK (%)” value (Ridgetown canning tomato; treatment 0-50-75) was 4.4% and the “Fruit weight (kg/24 plants)” value (Ridgetown canning tomato; treatment 0-50-75) was 11.352 kg/24 plants. For the same substance, the “Fruit weight Increase vs. CK (%)” value (Ridgetown canning tomato; treatment 0-50-75) was 4.7%, the “Fruit number (on 24 plants)” value (Ridgetown canning tomato; treatment 50-0-0) was 206AB and the “Fruit number Increase vs. CK (%)” value (Ridgetown canning tomato; treatment 50-0-0) was 12.6%. The “Fruit weight (kg/24 plants)” value (Ridgetown canning tomato; treatment 50-0-0) was 11.916 kg/24 plants, the “Fruit weight Increase vs. CK (%)” value (Ridgetown canning tomato; treatment 50-0-0) was 9.9% and the “Fruit number (on 24 plants)” value (Ridgetown canning tomato; treatment 50-50-0) was 219A. The “Fruit number Increase vs. CK (%)” value (Ridgetown canning tomato; treatment 50-50-0) was 19.7%, the “Fruit weight (kg/24 plants)” value (Ridgetown canning tomato; treatment 50-50-0) was 12.567 kg/24 plants and the “Fruit weight Increase vs. CK (%)” value (Ridgetown canning tomato; treatment 50-50-0) was 15.9%. The “Fruit number (on 24 plants)” value (Ridgetown canning tomato; treatment 50-75-0) was 199AB, the “Fruit number Increase vs. CK (%)” value (Ridgetown canning tomato; treatment 50-75-0) was 8.7% and the “Fruit weight (kg/24 plants)” value (Ridgetown canning tomato; treatment 50-75-0) was 11.421 kg/24 plants. For the same substance, the “Fruit weight Increase vs. CK (%)” value (Ridgetown canning tomato; treatment 50-75-0) was 5.3%, the optimal application ([1]; early fruit number and weight) was 75 ng/plant and the “early fruit number and weight” value ([1]; foliar spray 15 and 29 days after transplant) was “significantly increased”.
